Data from patent US20230183678A1, “IN-CELL CONTINUOUS TARGET-GENE EVOLUTION, SCREENING AND SELECTION” (COMMISSARIAT À L'ENERGIE ATOMIQUE ET AUX ENERGIES …, priority 2020, published 2023).

B1: cI-PDZ (DBD-target fusion) (other)
chain: MSTKKKPLTQEQLEDARRLKAIYEKKKNELGLSQESVADKMGMGQSGVGALFNGINALNAYNAALLAKILKVSVEEFSPSIAREIYEMYEAVSMQPSLRSEYEYPVFSHVQAGMFSPELRTFTKGDAERWVSTTKKASDSAFWLEVEGNSMTAPTGSKPSFPDGMLILVDPEQAVEPGDFCIARLGGDEFTFKKLIRDSGQVFLQPLNPQYPMIPCNESCSVVGKVIASQWPEETFGAAALGEEDIPREPRRIVIHRGSTGLGFNIVGGEDGEGIFISFILAGGPADLSGELRKGDQILSVNGVDLRNASHEQAAIALKNAGQTVTIIAQYKPEEYSRFEAK
notes: Expressed in E. coli BL21(DE3) Star or Acella cells from plasmid VN419

Tests used:
[1] = biological target: T1, PDZ (Homo sapiens, UniProt P78352); details: cI-PDZ/rpoA-CRIPT pair; read-out: affinity; cited from earlier work
T1 construct: expressed in transfected cells; host or cells: E. coli BL21(DE3) Star or Acella, plasmid VN419

[2] = biological target: T2, rpoA-stop (premature stop codon resulting in no fusion peptide) (UniProt P0A7Z4 1-248, limits assumed); assay: bacterial two-hybrid coupled to Bxb1 DNA invertase; sequencing of colonies showed no inversion
T2 construct: also called VN376
T2 sequence (P0A7Z4 1-248 limits assumed): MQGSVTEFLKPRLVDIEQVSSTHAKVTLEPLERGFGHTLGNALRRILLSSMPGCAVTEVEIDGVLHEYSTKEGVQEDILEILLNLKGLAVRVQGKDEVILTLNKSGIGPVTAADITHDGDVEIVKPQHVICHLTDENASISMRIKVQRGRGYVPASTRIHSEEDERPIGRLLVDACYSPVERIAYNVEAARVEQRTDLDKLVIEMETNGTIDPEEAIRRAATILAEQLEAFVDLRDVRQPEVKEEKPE

Molecule | Kd [1] | binding result [2]
CRIPT [rpoA-CRIPT] | 800 nM | 
B1 |  | no binding
